Results taken from patent US10294202B2, “Pyrrolidinones as herbicides” (FMC Corporation, priority 2013, dated 2019).

Legend:
nutsedge, yellow = test: Test C pre-/postemergence herbicide test; assay type: in vivo, Cyperus esculentus
Outline: (§1)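 Test compounds, formulated in a surfactant-containing non-phytotoxic solvent blend, are applied to seeded loam/sand soil (preemergence) and to young plants at the 1- to 4-leaf stage in peat-based medium (postemergence). Plants stay 13 to 15 days under greenhouse conditions, then are scored visually relative to controls, 0 = no effect, 100 = complete control.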

waterhemp = test: Test C pre-/postemergence herbicide test; assay type: in vivo, Amaranthus rudis
Outline: as §1

ragweed = test: Test C pre-/postemergence herbicide test; assay type: in vivo, Ambrosia elatior
Outline: as §1

oat, wild = test: Test C pre-/postemergence herbicide test; assay type: in vivo, Avena fatua; conditions: Postemergence
Outline: as §1

ducksalad = test: Test B flooded paddy test; assay type: in vivo, Heteranthera limosa; conditions: 500 g ai/ha, Flood; scale of 0 to 100 where 0 is no effect and 100 is complete control
Outline: (§2)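 Paddy-water application at a 3 cm flood, young plants having two leaves. Water level maintained; greenhouse, 13–15 days; visual 0–100 control rating.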

soybean = test: Test C pre-/postemergence herbicide test; assay type: in vivo, Glycine max
Outline: as §1

wheat = test: Test A pre-/postemergence herbicide test; assay type: in vivo, Triticum aestivum; conditions: Postemergence
Outline: (§3)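 Planted in loam–sand blend; treated the same day preemergence by directed soil spray, while separately grown plants at one- to two-leaf stage got postemergence spray. Compared visually with untreated controls after approximately 10 days; 100 means complete control.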

wheat (winter wheat) = test: Test C pre-/postemergence herbicide test; assay type: in vivo, Triticum aestivum
Outline: as §1

giant foxtail = test: Test A pre-/postemergence herbicide test; assay type: in vivo, Setaria faberii; conditions: for Plant response rating, Foxtail, Giant: 0 to 100 scale
Outline: as §3

oilseed rape = test: Test C pre-/postemergence herbicide test; assay type: in vivo, Brassica napus
Outline: as §1

pigweed = test: Test A pre-/postemergence herbicide test; assay type: in vivo, Amaranthus retroflexus; conditions: for Plant response rating, Pigweed: 0 to 100 scale
Outline: as §3

sedge, umbrella = test: Test B flooded paddy test; assay type: in vivo, Cyperus difformis; conditions: 500 g ai/ha, Flood; scale of 0 to 100 where 0 is no effect and 100 is complete control
Outline: as §2

[1] = Postemergence, 31 g ai/ha, scale 0 to 100 (0 no effect, 100 complete control)
[2] = Postemergence, 62 g ai/ha, scale 0 (no effect) to 100 (complete control)
[3] = Postemergence, 125 g ai/ha, scale 0 to 100 (0 no effect, 100 complete control)
[4] = Postemergence, 250 g ai/ha, scale 0 to 100 (0 no effect, 100 complete control)
[5] = Preemergence, 31 g ai/ha, scale 0 to 100, 0 is no effect and 100 is complete control
[6] = Preemergence, 62 g ai/ha, scale 0 to 100 (0 no effect, 100 complete control)
[7] = Preemergence, 125 g ai/ha, scale 0 to 100 (0 no effect, 100 complete control)
[8] = 125 g ai/ha, visual rating, 0 no effect, 100 complete control, approximately 10 days, preemergence
[9] = Postemergence, 125 g ai/ha, 0 is no effect, 100 is complete control
[10] = preemergence, 500 g ai/ha, 0 is no effect and 100 is complete control

O=C1NCC(c2ccc(C(F)(F)F)cc2)C1C(=O)Nc1cccc(F)c1F (racemic) [Compound 202]
25: Soybean plant response rating (soybean; [6]) | Oilseed Rape plant response rating (oilseed rape; [5])
40: Plant response rating, Wheat (wheat; 125 g ai/ha, 0 to 100 scale, 0 is no effect, 100 is complete control)
90: Plant response rating, Foxtail, Giant (giant foxtail; [8]) | Plant response rating, Foxtail, Giant (giant foxtail; [9]) | Foxtail, Giant plant response rating (0 to 100 scale, 0 is no effect, 100 is complete control) (giant foxtail; Postemergence, 500 g ai/ha) | Plant response rating, Foxtail, Giant (giant foxtail; [10]) | Plant response rating (scale of 0 to 100), Oilseed Rape (oilseed rape; Preemergence, 250 g ai/ha)
85: Plant response rating, Waterhemp (waterhemp; [4]) | Waterhemp plant response rating (waterhemp; [5]) | Plant response rating, Ragweed (ragweed; [4]) | Ragweed plant response rating (ragweed; [6]) | Plant response rating, Ragweed (ragweed; [7]) | Plant response rating, Oilseed Rape (oilseed rape; [7])
80: Plant response rating, Ragweed (ragweed; [3]) | Oilseed Rape plant response rating (oilseed rape; [6]) | Pigweed plant response rating (0 to 100 scale, 0 is no effect, 100 is complete control) (pigweed; Postemergence, 500 g ai/ha)
75: Plant response rating, Waterhemp (waterhemp; [3]) | Plant response rating, Ragweed (ragweed; [2])
70: Plant response rating, Ragweed (ragweed; [1]) | Plant response rating, Pigweed (pigweed; [9]) | Plant response rating, Pigweed (pigweed; [10])
95: Waterhemp plant response rating (waterhemp; [6])
50: Wheat plant response rating (0 to 100 scale, 0 is no effect, 100 is complete control) (wheat; 500 g ai/ha) | Plant response rating, Oilseed Rape (oilseed rape; [3]) | Plant response rating, Oilseed Rape (oilseed rape; [4])
100: Plant response rating, Waterhemp (waterhemp; [7]) | Plant response rating (scale of 0 to 100), Waterhemp (waterhemp; Preemergence, 250 g ai/ha) | Plant response rating (scale of 0 to 100), Ragweed (ragweed; Preemergence, 250 g ai/ha) | Plant response rating, Ducksalad (ducksalad)
10: Plant response rating, Oat, Wild (oat, wild; 250 g ai/ha, scale 0 to 100 (0 no effect, 100 complete control)) | Plant response rating, Soybean (soybean; [4]) | Plant response rating (scale of 0 to 100), Soybean (soybean; Preemergence, 250 g ai/ha)
60: Plant response rating, Waterhemp (waterhemp; [1]) | Plant response rating (scale of 0 to 100), Wheat (wheat (winter wheat); Preemergence, 250 g ai/ha) | Plant response rating, Pigweed (pigweed; [8])
55: Plant response rating, Wheat (wheat (winter wheat); [7])
0: Plant response rating, Nutsedge, Yellow (nutsedge, yellow; [1]) | Plant response rating, Nutsedge, Yellow (nutsedge, yellow; [2]) | Plant response rating, Nutsedge, Yellow (nutsedge, yellow; [3]) | Plant response rating, Nutsedge, Yellow (nutsedge, yellow; [4]) | Nutsedge, Yellow plant response rating (nutsedge, yellow; [5]) | Nutsedge, Yellow plant response rating (nutsedge, yellow; [6]) | Plant response rating, Nutsedge, Yellow (nutsedge, yellow; [7]) | Plant response rating (scale of 0 to 100), Nutsedge, Yellow (nutsedge, yellow; Preemergence, 250 g ai/ha) | Plant response rating, Oat, Wild (oat, wild; 31 g ai/ha, scale 0 to 100 (0 no effect, 100 complete control)) | Plant response rating, Oat, Wild (oat, wild; 62 g ai/ha, scale 0 (no effect) to 100 (complete control)) | Plant response rating, Soybean (soybean; [1]) | Plant response rating, Soybean (soybean; [2]) | Soybean plant response rating (soybean; [5]) | Plant response rating, Soybean (soybean; [7]) | Plant response rating, Wheat (wheat (winter wheat); [1]) | Plant response rating, Wheat (wheat (winter wheat); [2]) | Plant response rating, Wheat (wheat (winter wheat); [3]) | Wheat plant response rating (wheat (winter wheat); [5]) | Plant response rating, Oilseed Rape (oilseed rape; [1]) | Plant response rating, Oilseed Rape (oilseed rape; [2]) | Plant response rating, Sedge, Umbrella (sedge, umbrella)
5: Plant response rating, Soybean (soybean; [3]) | Plant response rating, Wheat (wheat (winter wheat); [4])
30: Plant response rating, Oat, Wild (oat, wild; 125 g ai/ha, scale 0 to 100 (0 no effect, 100 complete control)) | Wheat plant response rating (wheat (winter wheat); [6])
65: Plant response rating, Waterhemp (waterhemp; [2]) | Ragweed plant response rating (ragweed; [5])
